Experiments:
[1] = target: Sodium channel protein type 5 subunit alpha (Homo sapiens, UniProt Q14524); format: functional, cell-based
[2] = target: T1, Corticotropin-releasing factor receptor 1 (Homo sapiens, UniProt P34998)
T1 sequence (P34998 whole entry): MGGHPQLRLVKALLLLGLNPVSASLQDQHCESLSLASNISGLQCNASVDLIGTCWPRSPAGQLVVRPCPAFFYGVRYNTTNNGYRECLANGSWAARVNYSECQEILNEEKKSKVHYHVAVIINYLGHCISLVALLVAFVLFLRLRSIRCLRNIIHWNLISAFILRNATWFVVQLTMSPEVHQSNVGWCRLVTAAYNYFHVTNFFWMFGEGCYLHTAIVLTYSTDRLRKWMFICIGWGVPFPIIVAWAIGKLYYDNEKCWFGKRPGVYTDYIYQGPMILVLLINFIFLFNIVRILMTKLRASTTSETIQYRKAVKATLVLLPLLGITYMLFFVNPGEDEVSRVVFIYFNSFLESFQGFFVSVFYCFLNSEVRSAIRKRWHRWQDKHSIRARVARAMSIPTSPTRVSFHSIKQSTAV

[3] = target: T2, Corticotropin-releasing factor receptor 2 (Homo sapiens, UniProt Q13324)
T2 sequence (Q13324 whole entry): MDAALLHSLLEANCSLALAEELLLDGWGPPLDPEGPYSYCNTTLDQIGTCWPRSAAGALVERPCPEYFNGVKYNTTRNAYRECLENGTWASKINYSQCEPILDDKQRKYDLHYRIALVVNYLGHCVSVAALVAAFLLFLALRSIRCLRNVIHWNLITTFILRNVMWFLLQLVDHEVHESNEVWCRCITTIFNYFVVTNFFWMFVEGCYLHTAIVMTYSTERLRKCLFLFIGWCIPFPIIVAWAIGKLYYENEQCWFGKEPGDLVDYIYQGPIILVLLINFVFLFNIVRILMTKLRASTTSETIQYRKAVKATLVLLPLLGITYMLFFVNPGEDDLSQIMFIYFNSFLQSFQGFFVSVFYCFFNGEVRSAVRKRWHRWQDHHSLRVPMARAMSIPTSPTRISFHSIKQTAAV

[4] = target: T3, Endothelin receptor type B (Homo sapiens, UniProt P24530)
T3 sequence (P24530 whole entry): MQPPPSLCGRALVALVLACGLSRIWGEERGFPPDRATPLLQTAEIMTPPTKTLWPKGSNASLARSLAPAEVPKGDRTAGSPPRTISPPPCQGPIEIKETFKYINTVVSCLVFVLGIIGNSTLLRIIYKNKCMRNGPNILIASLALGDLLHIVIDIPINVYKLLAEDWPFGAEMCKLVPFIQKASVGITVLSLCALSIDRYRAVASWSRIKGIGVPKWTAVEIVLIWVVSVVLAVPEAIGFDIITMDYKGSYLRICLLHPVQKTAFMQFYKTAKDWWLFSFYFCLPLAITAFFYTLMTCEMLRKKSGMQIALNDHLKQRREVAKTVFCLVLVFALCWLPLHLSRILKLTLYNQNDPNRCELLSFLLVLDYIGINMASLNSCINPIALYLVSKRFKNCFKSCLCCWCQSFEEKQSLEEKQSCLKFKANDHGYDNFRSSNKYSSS

[5] = target: Estrogen receptor beta (Homo sapiens, UniProt Q92731)
[6] = target: Glucagon receptor (Homo sapiens, UniProt P47871)
[7] = target: T4, Gastric inhibitory polypeptide receptor (Homo sapiens, UniProt P48546)
T4 sequence (P48546 whole entry): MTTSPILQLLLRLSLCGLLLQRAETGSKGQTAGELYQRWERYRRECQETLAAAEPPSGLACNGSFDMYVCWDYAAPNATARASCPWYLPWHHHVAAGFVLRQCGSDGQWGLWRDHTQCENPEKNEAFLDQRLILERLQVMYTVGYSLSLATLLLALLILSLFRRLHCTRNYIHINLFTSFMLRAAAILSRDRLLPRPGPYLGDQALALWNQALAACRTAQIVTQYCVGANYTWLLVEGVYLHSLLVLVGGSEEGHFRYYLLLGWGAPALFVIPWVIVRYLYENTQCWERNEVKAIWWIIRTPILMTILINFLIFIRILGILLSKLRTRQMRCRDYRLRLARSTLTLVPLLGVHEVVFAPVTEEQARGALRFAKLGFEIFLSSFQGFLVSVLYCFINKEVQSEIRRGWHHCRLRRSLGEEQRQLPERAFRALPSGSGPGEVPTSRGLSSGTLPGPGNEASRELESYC

[8] = target: 5-hydroxytryptamine receptor 2B (Homo sapiens, UniProt P41595)
[9] = target: 5-hydroxytryptamine receptor 6 (Homo sapiens, UniProt P50406)
[10] = target: T5, Neuropeptide Y receptor type 2 (Homo sapiens, UniProt P49146)
T5 sequence (P49146 whole entry): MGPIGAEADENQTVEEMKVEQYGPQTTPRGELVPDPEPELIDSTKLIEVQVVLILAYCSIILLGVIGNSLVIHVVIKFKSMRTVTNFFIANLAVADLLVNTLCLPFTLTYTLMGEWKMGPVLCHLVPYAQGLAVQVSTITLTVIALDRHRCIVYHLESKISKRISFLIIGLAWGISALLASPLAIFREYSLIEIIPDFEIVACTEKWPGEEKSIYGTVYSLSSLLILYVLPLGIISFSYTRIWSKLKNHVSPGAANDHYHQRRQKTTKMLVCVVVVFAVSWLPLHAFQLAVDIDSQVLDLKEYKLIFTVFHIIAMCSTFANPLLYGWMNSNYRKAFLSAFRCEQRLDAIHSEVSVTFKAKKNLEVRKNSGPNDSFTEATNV

[11] = target: Gamma-aminobutyric acid type B receptor subunit 1 (Homo sapiens, UniProt Q9UBS5)
Also: assay procedure not described here.

Sequence of 5-hydroxytryptamine receptor 6 (P50406 whole entry): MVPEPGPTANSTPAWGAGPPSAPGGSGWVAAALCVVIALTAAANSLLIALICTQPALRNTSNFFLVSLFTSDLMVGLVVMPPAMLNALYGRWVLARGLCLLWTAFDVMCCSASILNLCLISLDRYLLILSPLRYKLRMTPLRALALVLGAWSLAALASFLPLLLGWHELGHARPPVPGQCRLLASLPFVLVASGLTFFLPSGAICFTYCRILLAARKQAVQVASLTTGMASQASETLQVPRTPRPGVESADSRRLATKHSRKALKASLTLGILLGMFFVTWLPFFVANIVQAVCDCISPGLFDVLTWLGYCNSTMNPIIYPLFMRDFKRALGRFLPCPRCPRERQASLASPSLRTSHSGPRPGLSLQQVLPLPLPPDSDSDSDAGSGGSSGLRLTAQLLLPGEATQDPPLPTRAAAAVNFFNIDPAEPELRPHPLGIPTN
Sequence of Gamma-aminobutyric acid type B receptor subunit 1 (Q9UBS5 whole entry): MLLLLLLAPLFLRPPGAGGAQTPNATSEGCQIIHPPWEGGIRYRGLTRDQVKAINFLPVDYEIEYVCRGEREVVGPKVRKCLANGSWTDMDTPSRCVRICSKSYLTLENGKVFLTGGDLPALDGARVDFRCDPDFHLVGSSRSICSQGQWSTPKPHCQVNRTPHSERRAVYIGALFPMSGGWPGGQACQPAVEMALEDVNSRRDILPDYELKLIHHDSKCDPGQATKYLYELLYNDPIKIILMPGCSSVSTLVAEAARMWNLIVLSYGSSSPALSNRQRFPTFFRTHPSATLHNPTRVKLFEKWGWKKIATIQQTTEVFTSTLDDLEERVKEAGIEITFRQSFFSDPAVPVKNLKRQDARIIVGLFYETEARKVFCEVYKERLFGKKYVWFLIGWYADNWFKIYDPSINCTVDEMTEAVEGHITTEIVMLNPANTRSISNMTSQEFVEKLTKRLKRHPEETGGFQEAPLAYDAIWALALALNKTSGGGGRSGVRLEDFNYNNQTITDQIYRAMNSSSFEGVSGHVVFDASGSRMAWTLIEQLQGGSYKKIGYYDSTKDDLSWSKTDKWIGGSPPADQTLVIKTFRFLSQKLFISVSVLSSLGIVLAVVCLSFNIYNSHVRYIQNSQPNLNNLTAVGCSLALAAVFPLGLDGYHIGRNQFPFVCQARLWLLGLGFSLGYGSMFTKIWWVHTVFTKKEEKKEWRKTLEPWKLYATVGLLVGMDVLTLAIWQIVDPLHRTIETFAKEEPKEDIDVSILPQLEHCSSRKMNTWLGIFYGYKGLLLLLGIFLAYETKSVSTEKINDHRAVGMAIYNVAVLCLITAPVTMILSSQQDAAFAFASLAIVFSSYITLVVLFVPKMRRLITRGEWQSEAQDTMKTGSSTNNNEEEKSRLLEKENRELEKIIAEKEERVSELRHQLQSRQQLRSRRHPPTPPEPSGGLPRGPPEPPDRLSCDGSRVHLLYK
Sequence of Sodium channel protein type 5 subunit alpha (Q14524 whole entry): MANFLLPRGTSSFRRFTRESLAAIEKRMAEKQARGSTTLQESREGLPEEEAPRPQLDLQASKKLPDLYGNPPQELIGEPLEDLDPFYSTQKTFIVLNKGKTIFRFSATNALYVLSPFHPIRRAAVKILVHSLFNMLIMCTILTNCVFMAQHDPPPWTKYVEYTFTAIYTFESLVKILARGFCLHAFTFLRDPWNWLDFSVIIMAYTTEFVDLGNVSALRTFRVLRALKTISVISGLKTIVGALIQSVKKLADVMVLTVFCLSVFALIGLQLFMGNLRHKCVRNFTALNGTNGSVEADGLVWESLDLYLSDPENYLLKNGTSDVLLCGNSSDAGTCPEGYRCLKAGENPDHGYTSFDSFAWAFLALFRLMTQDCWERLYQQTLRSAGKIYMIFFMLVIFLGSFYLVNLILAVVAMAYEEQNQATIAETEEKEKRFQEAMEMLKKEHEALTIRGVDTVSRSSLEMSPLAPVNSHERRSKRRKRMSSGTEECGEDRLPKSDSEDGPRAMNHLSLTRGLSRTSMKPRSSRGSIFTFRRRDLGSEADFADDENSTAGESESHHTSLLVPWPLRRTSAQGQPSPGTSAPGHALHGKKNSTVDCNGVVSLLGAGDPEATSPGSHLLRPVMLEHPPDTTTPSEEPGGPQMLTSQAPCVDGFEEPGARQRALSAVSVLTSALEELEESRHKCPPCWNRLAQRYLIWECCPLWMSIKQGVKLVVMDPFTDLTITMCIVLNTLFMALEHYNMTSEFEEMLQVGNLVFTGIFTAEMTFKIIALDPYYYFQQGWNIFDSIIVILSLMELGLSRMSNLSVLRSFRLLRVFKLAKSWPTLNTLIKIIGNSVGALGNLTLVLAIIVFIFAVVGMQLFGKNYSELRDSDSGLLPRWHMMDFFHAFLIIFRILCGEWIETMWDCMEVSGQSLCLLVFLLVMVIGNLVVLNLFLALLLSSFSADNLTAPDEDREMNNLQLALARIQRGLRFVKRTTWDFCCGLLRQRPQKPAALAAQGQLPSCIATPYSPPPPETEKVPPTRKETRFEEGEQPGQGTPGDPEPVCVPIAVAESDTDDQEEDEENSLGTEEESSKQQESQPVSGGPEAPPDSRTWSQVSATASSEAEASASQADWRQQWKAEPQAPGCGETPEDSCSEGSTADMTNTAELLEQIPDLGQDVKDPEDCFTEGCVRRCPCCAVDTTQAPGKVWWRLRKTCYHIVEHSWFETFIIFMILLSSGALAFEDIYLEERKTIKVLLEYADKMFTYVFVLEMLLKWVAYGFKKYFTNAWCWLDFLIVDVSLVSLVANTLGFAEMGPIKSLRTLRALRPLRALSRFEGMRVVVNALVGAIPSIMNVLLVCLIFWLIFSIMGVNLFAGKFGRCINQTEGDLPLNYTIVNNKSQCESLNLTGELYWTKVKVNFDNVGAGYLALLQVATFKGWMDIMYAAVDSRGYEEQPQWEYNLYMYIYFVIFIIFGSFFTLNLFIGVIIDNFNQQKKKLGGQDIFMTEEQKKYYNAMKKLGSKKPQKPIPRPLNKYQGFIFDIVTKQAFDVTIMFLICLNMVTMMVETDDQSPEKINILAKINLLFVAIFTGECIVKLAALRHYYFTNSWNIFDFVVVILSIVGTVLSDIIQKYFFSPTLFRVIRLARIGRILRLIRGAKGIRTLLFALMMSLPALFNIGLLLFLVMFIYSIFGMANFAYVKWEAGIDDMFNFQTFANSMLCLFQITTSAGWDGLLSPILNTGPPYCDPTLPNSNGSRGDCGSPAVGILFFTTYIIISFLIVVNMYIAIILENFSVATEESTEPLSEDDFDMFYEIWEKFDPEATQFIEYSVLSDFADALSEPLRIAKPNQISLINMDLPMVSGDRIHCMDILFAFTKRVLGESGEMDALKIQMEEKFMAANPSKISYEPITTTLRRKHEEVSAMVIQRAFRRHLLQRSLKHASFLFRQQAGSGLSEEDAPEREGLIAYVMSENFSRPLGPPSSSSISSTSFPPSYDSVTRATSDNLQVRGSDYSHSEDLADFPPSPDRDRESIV
Sequence of Glucagon receptor (P47871 whole entry): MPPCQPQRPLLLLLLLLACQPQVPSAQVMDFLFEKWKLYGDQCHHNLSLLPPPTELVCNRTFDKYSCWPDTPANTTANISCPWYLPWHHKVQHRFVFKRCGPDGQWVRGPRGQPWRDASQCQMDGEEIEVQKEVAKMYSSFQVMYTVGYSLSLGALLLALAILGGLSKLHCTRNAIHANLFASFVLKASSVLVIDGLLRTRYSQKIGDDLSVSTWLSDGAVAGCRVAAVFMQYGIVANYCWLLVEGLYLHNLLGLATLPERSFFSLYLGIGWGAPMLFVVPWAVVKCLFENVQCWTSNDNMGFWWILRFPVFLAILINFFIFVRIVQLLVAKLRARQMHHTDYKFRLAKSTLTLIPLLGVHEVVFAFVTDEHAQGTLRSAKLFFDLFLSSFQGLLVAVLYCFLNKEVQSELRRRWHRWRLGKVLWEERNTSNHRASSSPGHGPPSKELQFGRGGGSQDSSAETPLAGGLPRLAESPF
Sequence of 5-hydroxytryptamine receptor 2B (P41595 whole entry): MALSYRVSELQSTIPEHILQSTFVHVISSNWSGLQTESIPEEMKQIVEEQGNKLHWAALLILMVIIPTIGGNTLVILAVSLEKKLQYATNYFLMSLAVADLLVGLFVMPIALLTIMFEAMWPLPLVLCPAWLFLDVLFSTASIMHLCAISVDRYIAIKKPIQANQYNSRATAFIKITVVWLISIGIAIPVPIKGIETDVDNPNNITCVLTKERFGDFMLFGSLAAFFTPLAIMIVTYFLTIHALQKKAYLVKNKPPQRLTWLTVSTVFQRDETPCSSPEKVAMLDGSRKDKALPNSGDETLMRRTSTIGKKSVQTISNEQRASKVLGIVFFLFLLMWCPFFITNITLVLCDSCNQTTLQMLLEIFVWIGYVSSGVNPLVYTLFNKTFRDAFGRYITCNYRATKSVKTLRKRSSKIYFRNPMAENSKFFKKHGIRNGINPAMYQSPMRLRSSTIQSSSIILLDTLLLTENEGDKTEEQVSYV
Sequence of Estrogen receptor beta (Q92731 whole entry): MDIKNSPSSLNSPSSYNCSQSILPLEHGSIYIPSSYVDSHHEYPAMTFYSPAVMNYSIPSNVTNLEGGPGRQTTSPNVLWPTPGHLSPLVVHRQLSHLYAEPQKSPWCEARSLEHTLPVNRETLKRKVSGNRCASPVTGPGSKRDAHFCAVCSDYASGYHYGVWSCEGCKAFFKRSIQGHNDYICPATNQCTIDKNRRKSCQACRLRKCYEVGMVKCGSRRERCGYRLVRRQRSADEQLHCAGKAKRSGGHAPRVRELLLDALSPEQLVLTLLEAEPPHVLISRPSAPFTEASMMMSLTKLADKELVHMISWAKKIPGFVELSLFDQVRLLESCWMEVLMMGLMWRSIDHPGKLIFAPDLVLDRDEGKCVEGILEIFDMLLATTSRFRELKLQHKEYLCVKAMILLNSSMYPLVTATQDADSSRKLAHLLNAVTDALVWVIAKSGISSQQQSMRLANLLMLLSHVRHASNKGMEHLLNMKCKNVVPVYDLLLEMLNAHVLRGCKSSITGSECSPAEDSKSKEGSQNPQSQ

| Compound | AC50 [1] [µM] | AC50 [2] [µM] | AC50 [3] [µM] | AC50 [4] [µM] | AC50 [5] [µM] | AC50 [6] [µM] | AC50 [7] [µM] | AC50 [8] [µM] | AC50 [9] [µM] | AC50 [10] [µM] | AC50 [11] [µM] |
| --- | --- | --- | --- | --- | --- | --- | --- | --- | --- | --- | --- |
| CCCN(CC)C(CC)C(=O)Nc1c(C)cccc1C (stereo unspecified) [ETIDOCAINE] | 28 |  |  |  |  |  |  |  |  |  |  |
| [H]/N=C(/N)N[C@H]1[C@H](O)[C@@H](O)[C@H](O[C@@H]2O[C@@H](C)[C@](O)(C=O)[C@H]2O[C@@H]2O[C@@H](CO)[C@H](O)[C@@H](O)[C@@H]2NC)[C@@H](N/C(N)=N\[H])[C@@H]1O [STREPTOMYCIN] |  | > 30 | > 30 | > 30 | > 30 | > 30 | > 30 | > 10 | > 10 | > 30 |  |
| Cc1ccc(=O)n(-c2ccccc2)c1 [PIRFENIDONE] | > 50 |  |  |  |  |  |  |  |  |  |  |
| O=C(O)c1ccccc1Nc1cccc(C(F)(F)F)c1 [FLUFENAMIC ACID] |  | > 30 | > 30 | > 30 | > 30 | > 30 | > 30 |  |  | > 30 |  |
| COC(=O)N[C@@H](C)CNc1nccc(-c2cn(C(C)C)nc2-c2cc(Cl)cc(NS(C)(=O)=O)c2F)n1 [ENCORAFENIB] | > 30 |  |  |  |  |  |  |  |  |  |  |
| N[C@H](Cc1cc(I)c(Oc2cc(I)c(O)c(I)c2)c(I)c1)C(=O)O [DEXTROTHYROXINE] |  | > 30 | > 30 | > 30 | > 30 | > 30 | > 30 | > 10 |  | > 30 |  |
| N#Cc1ccccc1-c1cc(-c2ccccn2)cn(-c2ccccc2)c1=O | > 30 |  |  |  |  |  |  |  |  |  |  |
| N#C[C@@H]1CCCN1C(=O)CNC12CC3CC(CC(O)(C3)C1)C2 [VILDAGLIPTIN] |  |  |  |  |  |  |  | > 10 | > 10 |  | > 10 |
| NCCCC(O)(P(=O)(O)O)P(=O)(O)O [ALENDRONIC ACID] | > 30 | > 30 | > 30 | > 30 | > 30 | > 30 | > 30 |  | > 10 | > 30 | > 10 |
| CC(C)CC(N(C)C)C1(c2ccc(Cl)cc2)CCC1 (stereo unspecified) [SIBUTRAMINE] |  | > 30 | > 30 | > 30 | > 30 | > 30 | > 30 |  |  | > 30 | > 10 |
| CC(CCc1ccccc1)NC(C)C(O)c1ccc(O)cc1 (stereo unspecified) [NYLIDRIN] |  | > 30 | > 30 | > 30 |  | > 30 | > 30 | 0.733 | > 10 | > 30 | > 10 |
| Cc1ccc(NC(=O)C2(c3ccc4c(c3)OC(F)(F)O4)CC2)nc1-c1cccc(C(=O)O)c1 [LUMACAFTOR] | > 50 |  |  |  |  |  |  |  |  |  |  |
| CC#CCn1c(N2CCC[C@@H](N)C2)nc2c1c(=O)n(Cc1nc(C)c3ccccc3n1)c(=O)n2C [LINAGLIPTIN] | > 150 |  |  |  |  |  |  | > 10 |  |  |  |
| O=C1Nc2ccc(Cl)cc2C(c2ccccc2)=NC1O (stereo unspecified) [OXAZEPAM] |  | > 30 | > 30 | > 30 | > 30 | > 30 | > 30 |  | > 10 | > 30 | > 10 |
| COCCOC(=O)C1=C(C)NC(C)=C(C(=O)OC/C=C/c2ccccc2)C1c1cccc([N+](=O)[O-])c1 (stereo unspecified) [CILNIDIPINE] | > 50 |  |  |  |  |  |  |  |  |  |  |
| COC1=C(OC)C(=O)C(CCCCCCCCCCO)=C(C)C1=O [IDEBENONE] |  | > 30 | > 30 | > 30 | > 30 | > 30 | > 30 | 8.99 | > 10 | > 30 | > 10 |
| CCCC(C)(COC(N)=O)COC(=O)NC(C)C (stereo unspecified) [CARISOPRODOL] |  | > 30 | > 30 | > 30 |  | > 30 | > 30 | > 10 |  | > 30 |  |
| CC(=O)OCC(CCn1cnc2cnc(N)nc21)COC(C)=O [FAMCICLOVIR] |  | > 30 | > 30 | > 30 | > 30 | > 30 | > 30 | > 10 |  | > 30 |  |
| O=C1CN=C(c2ccccc2)c2cc(Cl)ccc2N1 [NORDAZEPAM] |  | > 30 | > 30 | > 30 | > 30 | > 30 | > 30 | > 10 | > 10 | > 30 | > 10 |

Source: ChEMBL document CHEMBL5291721, “A preclinical secondary pharmacology resource illuminates target-adverse drug reaction associations of marketed drugs” (Nat Commun, 2023)
